The record followed here is patent US7605168B2 (Plexxikon, Inc., priority 2004, dated 2009).

One may read the IC50 as the concentration that inhibits the measured activity by half.

In assay [1] the target is T1, PDE4D: catalytic domain S316-V692 (Homo sapiens, UniProt Q08499).
T1 construct: pET15S PDE4D S316-V692-X; His6 (N, cleaved yes); thrombin cleavage site (N, cleaved yes); made in house; host or cells: E. coli BL21 (DE3) RIL
The assay is described as follows: PDE4 IC50 determination by Scintillation Proximity Assay (SPA), PDE4D catalytic domain. Format: biochemical. As to conditions: [3H]cAMP SPA, 30 min at 30° C. For orientation: Scintillation proximity formats need no separation of bound from free tracer.

The subject of assay [2] is TNF-α release from whole blood cultures stimulated with LPS. As to the kind of experiment: IC50 by TNF alpha production upon stimulation of whole blood cultures with LPS. The assay is classed as cell-based. As to conditions: human whole blood (buffy coat) culture, 100 ng/ml LPS, 4 hours; read-out: h TNFα IC50. The procedure, abridged:
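Human buffy coat, diluted with 7 volumes of RPMI/2.5% heat-inactivated FBS, was preincubated with compound (8-point 1:3 series) for 1 h at 37 °C. It was then stimulated with 100 ng/ml LPS (final) for 4 h. Supernatant TNF-α was measured by sandwich ELISA at 450 nm, and IC50 was set between DMSO (0%) and PDE4-inhibitor (100%) controls.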

T1 sequence (Q08499 380-756): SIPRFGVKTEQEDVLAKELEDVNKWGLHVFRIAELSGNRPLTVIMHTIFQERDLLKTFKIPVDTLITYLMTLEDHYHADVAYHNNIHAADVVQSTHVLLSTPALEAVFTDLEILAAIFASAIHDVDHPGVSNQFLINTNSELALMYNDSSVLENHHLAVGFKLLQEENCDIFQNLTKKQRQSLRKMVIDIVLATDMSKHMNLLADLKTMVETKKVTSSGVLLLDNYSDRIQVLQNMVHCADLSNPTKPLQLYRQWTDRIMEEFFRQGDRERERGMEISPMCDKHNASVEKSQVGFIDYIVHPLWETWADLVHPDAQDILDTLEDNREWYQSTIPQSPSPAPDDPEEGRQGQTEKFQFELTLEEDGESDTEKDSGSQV

As to `CCOc1ccc2ccccc2c1C(=O)n1cc(-c2ccc(OC)c(OC)c2)c2cccnc21` [Compound 52, [3-(3,4-Dimethoxy-phenyl)-pyrrolo[2,3-b]pyridin-1-yl]-(2-ethoxy-naphthalen-1-yl)-methanone], the IC50 in assay [1] and in assay [2] was at most 10 µM in each case.
For `CCOc1ccccc1C(=O)n1cc(-c2ccc(OC)c(OC)c2)c2cccnc21` [Compound 61, [3-(3,4-Dimethoxy-phenyl)-pyrrolo[2,3-b]pyridin-1-yl]-(2-ethoxy-phenyl)-methanone-amide], the IC50 in assay [1] and in assay [2] was at most 10 µM throughout.
